Target: Metabotropic glutamate receptor 2 (Homo sapiens, UniProt Q14416)
Test: In Vitro Activity Test for mGluR2: Experimental materials: HEK/mGluR2 cell line ([…] transfected HEK cell line), DMEM (FBS) medium, positive control LY487379 (purchased from sigma; CAS: to 352317-17-1)Experimental instrument: FLIPR Tetra real-time fluorescence imaging analysis systemExperimental method: HDB Fluo-8 calcium fluorescence detection methodExperimental principle: HDB Fluo-8 calcium ion fluorescence detection method is a fast, simple and reliable fluorescence detection method of intracellular calcium concentration changes. The Fluo 8-AM fluorescent dye is an acetyl methyl ester derivative of Fluo 8 which can easily penetrate into the cell membrane by culture. The fluorescent dye in the cell will be hydrolyzed by intracellular esterase, the resulting Fluo 8 as a polar molecule, cannot easily pass through the lipid bimolecular membrane, and will be retained in the cell, and combine with calcium (Ca2+) to produce fluoresces.Cells expressing GPCR receptor protein (mGluR2) were first calibrated with a calcium ion sensitive fluorescent probe and then stimulated with the compound. After stimulation, the receptor activates the calcium ion mobilization, and the fluorescent probe captures the calcium ion to induce the fluorescence signal. The signal can be read by a fluoroscopy plate. The fluorescent plate reader contains a sample addition for compound addition, thus enabling the change of the fluorescence value of the compound be read in real time.
Assay type: cell-based

Chain of Metabotropic glutamate receptor 2 (Q14416 whole entry): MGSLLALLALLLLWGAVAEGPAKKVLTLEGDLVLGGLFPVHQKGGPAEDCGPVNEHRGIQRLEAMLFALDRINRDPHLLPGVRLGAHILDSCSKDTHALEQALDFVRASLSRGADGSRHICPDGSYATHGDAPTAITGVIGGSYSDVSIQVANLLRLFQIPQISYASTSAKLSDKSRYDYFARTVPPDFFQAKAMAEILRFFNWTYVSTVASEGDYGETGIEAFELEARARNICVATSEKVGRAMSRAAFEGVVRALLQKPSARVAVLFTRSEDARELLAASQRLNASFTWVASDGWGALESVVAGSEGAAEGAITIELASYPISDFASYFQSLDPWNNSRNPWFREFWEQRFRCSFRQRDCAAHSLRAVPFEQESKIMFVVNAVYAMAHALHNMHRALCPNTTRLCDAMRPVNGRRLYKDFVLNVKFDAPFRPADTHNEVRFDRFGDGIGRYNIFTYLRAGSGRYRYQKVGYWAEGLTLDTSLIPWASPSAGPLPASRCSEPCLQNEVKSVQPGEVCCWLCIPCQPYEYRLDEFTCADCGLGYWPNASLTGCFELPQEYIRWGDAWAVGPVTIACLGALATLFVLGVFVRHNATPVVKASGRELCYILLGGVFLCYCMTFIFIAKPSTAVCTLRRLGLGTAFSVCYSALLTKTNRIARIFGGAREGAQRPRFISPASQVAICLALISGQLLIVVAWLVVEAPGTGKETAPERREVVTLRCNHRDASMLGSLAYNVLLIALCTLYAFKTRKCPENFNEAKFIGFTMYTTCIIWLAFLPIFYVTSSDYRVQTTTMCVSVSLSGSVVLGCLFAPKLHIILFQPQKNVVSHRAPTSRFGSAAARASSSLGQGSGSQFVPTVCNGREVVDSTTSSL

COC(=O)c1ccc(-c2ccn3c(CC4CC4)nnc3c2Cl)c(F)c1
EC50: 910 nM

Clc1c(-c2ccc3c(c2)OCO3)ccn2c(CC3CC3)nnc12
EC50: 890 nM

c1cc2c(cc1-c1ccn3c(CC4CC4)nnc3c1)OCO2
EC50: 970 nM

Source: ChEMBL document CHEMBL5728032, “Fluorine-containing triazolopyridine, and manufacturing method, pharmaceutical composition, and application thereof” (2020)
